The values that follow come from ChEMBL document CHEMBL4706550, “Design, synthesis and biological activities of piperidine-spirooxadiazole derivatives as α7 nicotinic receptor antagonists” (Eur J Med Chem, 2020).

Active and inactive are the calls of the source. No cut-off for these calls is given here.

In experiment [1] the target is T1, Neuronal acetylcholine receptor subunit alpha-7 (Homo sapiens, UniProt P36544). Kind of experiment: Antagonist activity at human alpha7 nAChR expressed in Xenopus laevis oocytes assessed as inhibition of Ach-induced current at 100 uM measured at holding potential of -90 mV by two electrode voltage-clamp assay relative to control. Format: cell-based. The following applies: Oocyte.

Experiment [2] deals with T1, Neuronal acetylcholine receptor subunit alpha-7. In words: Antagonist activity at human alpha7 nAChR expressed in Xenopus laevis oocytes assessed as inhibition of Ach-induced current at 30 uM measured at holding potential of -90 mV by two electrode voltage-clamp assay relative to control. In kind it is cell-based. The following applies: Oocyte. Background: In two-electrode clamp one electrode senses voltage and the other passes current.

Experiment [3] has the same target. Kind of experiment: Antagonist activity at human alpha7 nAChR expressed in Xenopus laevis oocytes assessed as inhibition of Ach-induced current measured at holding potential of -90 mV by two electrode voltage-clamp assay. In kind it is cell-based, Oocyte.
Experiment [4] has as its target Neuronal acetylcholine receptor; alpha4/beta2 (Rattus norvegicus, UniProt P09483+P12390). Kind of experiment: Antagonist activity at rat alpha4beta2 nAChR expressed in Xenopus laevis oocytes assessed as inhibition of Ach-induced current measured at holding potential of -90 mV by two electrode voltage-clamp assay. In kind it is cell-based, Oocyte.
The target in experiment [5] is T2, Neuronal acetylcholine receptor; alpha4/beta2 (Rattus norvegicus) (UniProt P09483+P12390). Kind of experiment: Antagonist activity at rat alpha4beta2 nAChR expressed in Xenopus laevis oocytes assessed as effect on nAChR current at 10 uM measured at holding potential of -90 mV by two electrode voltage-clamp assay. In kind it is cell-based. The following applies: Oocyte.

The target of experiment [6] is T3, Neuronal acetylcholine receptor; alpha3/beta4 (Rattus norvegicus) (UniProt P04757+P12392). Kind of experiment: Antagonist activity at rat alpha3beta4 nAChR expressed in Xenopus laevis oocytes assessed as effect on nAChR current measured at holding potential of -90 mV by two electrode voltage-clamp assay. In kind it is cell-based. The following applies: Oocyte, dose 10.0 µM.

Experiment [7] can be described thus: Selectivity index, ratio of IC50 for rat alpha4beta2 nAChR expressed in Xenopus laevis oocytes to IC50 for human alpha7 nAChR expressed in Xenopus laevis oocytes. Format: cell-based.
The target of experiment [8] is T3, Neuronal acetylcholine receptor; alpha3/beta4 (Rattus norvegicus). In words: Antagonist activity at rat alpha3beta4 nAChR expressed in Xenopus laevis oocytes assessed as inhibition of Ach-induced current at 10 uM measured at holding potential of -90 mV by two electrode voltage-clamp assay relative to control. Format: cell-based. The following applies: Oocyte.
For experiment [9], the target named is T2, Neuronal acetylcholine receptor; alpha4/beta2 (Rattus norvegicus). In words: Antagonist activity at rat alpha4beta2 nAChR expressed in Xenopus laevis oocytes assessed as inhibition of Ach-induced current at 10 uM measured at holding potential of -90 mV by two electrode voltage-clamp assay relative to control. Format: cell-based. The note with it: Oocyte.

T1 sequence (P36544 whole entry): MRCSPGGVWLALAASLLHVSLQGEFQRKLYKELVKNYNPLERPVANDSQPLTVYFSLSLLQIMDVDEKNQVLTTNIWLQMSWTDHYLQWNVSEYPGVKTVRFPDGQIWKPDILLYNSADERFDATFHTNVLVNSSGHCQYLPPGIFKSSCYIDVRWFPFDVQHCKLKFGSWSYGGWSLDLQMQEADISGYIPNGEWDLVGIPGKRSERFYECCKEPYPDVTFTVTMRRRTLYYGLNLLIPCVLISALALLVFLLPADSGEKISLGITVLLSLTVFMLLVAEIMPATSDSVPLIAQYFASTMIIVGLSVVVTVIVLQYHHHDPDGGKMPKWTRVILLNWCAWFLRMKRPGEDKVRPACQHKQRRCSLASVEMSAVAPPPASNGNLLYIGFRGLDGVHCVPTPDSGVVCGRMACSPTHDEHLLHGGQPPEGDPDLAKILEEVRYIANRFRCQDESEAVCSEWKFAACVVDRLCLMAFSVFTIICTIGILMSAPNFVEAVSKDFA
Chain of Neuronal acetylcholine receptor; alpha4/beta2 (P09483 whole entry): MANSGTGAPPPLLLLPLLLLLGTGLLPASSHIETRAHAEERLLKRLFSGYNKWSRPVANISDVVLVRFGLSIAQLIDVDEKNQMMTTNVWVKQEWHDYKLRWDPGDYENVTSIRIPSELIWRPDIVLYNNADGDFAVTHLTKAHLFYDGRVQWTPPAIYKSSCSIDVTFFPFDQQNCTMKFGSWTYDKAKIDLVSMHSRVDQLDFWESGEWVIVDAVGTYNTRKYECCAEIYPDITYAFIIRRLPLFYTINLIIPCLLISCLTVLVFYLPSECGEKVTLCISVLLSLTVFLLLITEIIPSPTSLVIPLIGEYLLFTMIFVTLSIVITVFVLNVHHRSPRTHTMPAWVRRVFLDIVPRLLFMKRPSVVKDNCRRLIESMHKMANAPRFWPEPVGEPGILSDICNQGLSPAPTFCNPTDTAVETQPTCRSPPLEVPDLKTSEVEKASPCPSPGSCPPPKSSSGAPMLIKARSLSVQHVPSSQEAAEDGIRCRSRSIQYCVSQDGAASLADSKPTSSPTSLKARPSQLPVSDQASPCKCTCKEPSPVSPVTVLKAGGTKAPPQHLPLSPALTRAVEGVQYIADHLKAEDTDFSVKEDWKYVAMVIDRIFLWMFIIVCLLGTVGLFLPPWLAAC
Chain of Neuronal acetylcholine receptor; alpha4/beta2 (P12390 whole entry): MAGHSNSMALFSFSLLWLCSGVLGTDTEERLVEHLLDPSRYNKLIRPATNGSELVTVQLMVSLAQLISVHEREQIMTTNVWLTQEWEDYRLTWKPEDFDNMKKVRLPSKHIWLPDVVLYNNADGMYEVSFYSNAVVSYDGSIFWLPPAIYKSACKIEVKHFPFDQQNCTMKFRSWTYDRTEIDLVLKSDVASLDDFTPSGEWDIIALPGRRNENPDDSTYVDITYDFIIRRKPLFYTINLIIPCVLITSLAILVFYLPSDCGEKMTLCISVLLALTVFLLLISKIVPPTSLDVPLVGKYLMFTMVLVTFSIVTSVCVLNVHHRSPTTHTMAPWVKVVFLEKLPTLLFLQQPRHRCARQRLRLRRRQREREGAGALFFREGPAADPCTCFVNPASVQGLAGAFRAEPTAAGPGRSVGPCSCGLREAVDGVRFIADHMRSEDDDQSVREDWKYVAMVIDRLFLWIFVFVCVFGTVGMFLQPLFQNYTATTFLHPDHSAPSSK

A word on the inhibition: it is the drop in the measured response relative to a control, in per cent. Take `c1ccc(CN2CCC3(CC2)NC(C2CC2)=NO3)cc1`: the inhibition came to 83.9% in experiment [1] (filed as antagonist) and 52.2% in experiment [2] (filed as antagonist).
On to `Clc1ccc(C2=NOC3(CCN(Cc4ccccc4)CC3)N2)cc1`, for which the inhibition in [1] (filed as antagonist) worked out at 90.7%; in experiment [2] (filed as antagonist), 77.4%.
With `c1ccc(CN2CCC3(CC2)NC(c2ccc(-c4ccncc4)cc2)=NO3)cc1`, the inhibition in experiment [1] (filed as antagonist) came to 75.2%. Also, the inhibition entry in experiment [2] is “inactive”.
For `Oc1cccc(-c2ccc(C3=NOC4(CCN(Cc5ccccc5)CC4)N3)cc2)c1`, the inhibition in experiment [1] (filed as antagonist) was determined as 80.4%; in experiment [2] (filed as antagonist), 59%.
In the case of `Cc1cccc(C2=NOC3(CCN(Cc4ccccc4)CC3)N2)c1`, in experiment [1] (filed as antagonist), the inhibition amounted to 75.4%. Moreover, the inhibition result in experiment [2] is “inactive”.
Consider `FC(F)(F)c1cccc(-c2ccc(C3=NOC4(CCN(Cc5ccccc5)CC4)N3)cc2)c1`, for which the inhibition in [1] (filed as antagonist) is 67%. Further, the inhibition result in [2] is “inactive”.
Turning to `c1ccc(C2=NOC3(CCN(Cc4ccccn4)CC3)N2)cc1`, the inhibition in experiment [1] (filed as antagonist) was 70.2%. Further, the inhibition entry in experiment [2] was “inactive”.
By IC50 is commonly meant the midpoint of a concentration-inhibition curve. As to `Brc1ccc(C2=NOC3(CCN(Cc4ccccc4)CC3)N2)cc1`, the inhibition stood at 91.5% in [1] (filed as antagonist) and 90.8% in experiment [2] (filed as antagonist). The IC50 in experiment [3] was found to be 6 µM.
For `c1ccc(CN2CCC3(CC2)NC(c2nccs2)=NO3)nc1`, the inhibition was determined as 80% in [1] (filed as antagonist) and 39.3% in experiment [2].
As for `COc1cc(-c2ccc(C3=NOC4(CCN(C)CC4)N3)cc2)ccn1`, the inhibition in experiment [1] (filed as antagonist) worked out at 93.4%; in [2] (filed as antagonist), 86.1%. Also, the IC50 in [3] was 3.3 µM.
Consider `COc1cc(OC)cc(-c2ccc(C3=NOC4(CCN(Cc5ccccc5)CC4)N3)cc2)c1`, for which the inhibition in experiment [1] (filed as antagonist) came out at 73%. Also, the inhibition result in [2] was “inactive”.
Consider `FC(F)(F)c1ccc(-c2ccc(C3=NOC4(CCN(Cc5ccccc5)CC4)N3)cc2)cc1`, for which the inhibition in experiment [1] is 36.5%. For the same molecule, the inhibition result in [2] is “inactive”.
As for `COc1cccc(-c2ccc(C3=NOC4(CCN(C)CC4)N3)cc2)c1`, the inhibition in experiment [1] (filed as antagonist) stood at 93.2%; in experiment [2] (filed as antagonist), 81.3%.
With `Nc1cccc(-c2ccc(C3=NOC4(CCN(Cc5ccccc5)CC4)N3)cn2)c1`, the inhibition in [1] (filed as antagonist) turned out to be 87.2%; in [2] (filed as antagonist) it was 61.8%.
In the case of `CC(C)(C)OC(=O)N1CCC2(CC1)NC(c1ccccc1)=NO2`, the inhibition in experiment [1] (filed as antagonist) turned out to be 73.5%. Moreover, the inhibition entry in experiment [2] is “inactive”.
As for `CN1CCC2(CC1)NC(c1nccs1)=NO2`, the figures for the inhibition in experiment [1] (filed as antagonist) and in [2] (filed as antagonist) were 87.4% and 69.7%, respectively.
As for `c1ccc(CN2CCC3(CC2)NC(c2ccc(-c4ccccc4)cc2)=NO3)cc1`, the inhibition in experiment [1] (filed as antagonist) came out at 71.4%. Moreover, the inhibition entry in [2] is “inactive”.
For the molecule `c1ccc(CN2CCC3(CC2)NC(c2cc4ccccc4cn2)=NO3)nc1`, the inhibition was determined as 80% in experiment [1] (filed as antagonist) and 37.9% in experiment [2].
On the same counts, the results for `COc1cccc(-c2ccc(C3=NOC4(CCN(Cc5ccccc5)CC4)N3)cn2)c1` are 58.2% and “inactive”.
For the molecule `c1ccc(CN2CCC3(CC2)NC(c2nccs2)=NO3)cc1`, the results for the inhibition in experiment [1] (filed as antagonist) and in experiment [2] (filed as antagonist) were 94.5% and 65.1%, respectively.
`c1ccc(CN2CCC3(CC2)NC(c2ccccc2)=NO3)cc1`: the inhibition in experiment [1] (filed as antagonist) stood at 98.2%; in experiment [2] (filed as antagonist) it was 70.4%. Moreover, in [3], the IC50 amounted to 13.7 µM.
Regarding `CN1CCC2(CC1)NC(c1ccc(-c3cccc(N)c3)cc1)=NO2`, the inhibition in [1] (filed as antagonist) came to 78.2%. Also, in experiment [2], the inhibition result is “inactive”.
With `Fc1ccc(-c2ccc(C3=NOC4(CCN(Cc5ccccc5)CC4)N3)cc2)cc1`, the inhibition in experiment [1] (filed as antagonist) amounted to 42.4%. In addition, in [2], the inhibition entry is “inactive”.
As to `COc1ccc(-c2ccc(C3=NOC4(CCN(Cc5ccccc5)CC4)N3)cc2)cc1`, the inhibition in experiment [1] (filed as antagonist) is 40.5%. The inhibition entry in experiment [2] is “inactive”.
Consider `c1ccc(CN2CCC3(CC2)NC(c2cccs2)=NO3)cc1`, for which the inhibition in [1] (filed as antagonist) was found to be 74.9%. Moreover, the inhibition entry in experiment [2] was “inactive”.
In the case of `c1ccc(CN2CCC3(CC2)NC(c2ccc(-c4cccnc4)cc2)=NO3)cc1`, the inhibition in [1] (filed as antagonist) worked out at 81.1%; in [2] (filed as antagonist), 65%.
Take `c1ccc2cc(C3=NOC4(CCN(Cc5ccncc5)CC4)N3)ncc2c1`: in [1] (filed as antagonist), the inhibition came out at 58.2%. Further, in experiment [2], the inhibition result was “inactive”.
Regarding `COc1ccc(C2=NOC3(CCN(Cc4ccccc4)CC3)N2)c(OC)c1`, the inhibition in [1] (filed as antagonist) is 79.1%. Besides, the inhibition entry in experiment [2] was “inactive”.
Turning to `COc1cc(-c2ccc(C3=NOC4(CCN(Cc5ccccc5)CC4)N3)cc2)ccn1`, the inhibition worked out at 89.9% in experiment [1] (filed as antagonist) and 54.7% in experiment [2] (filed as antagonist).
In the case of `COc1ccc(C2=NOC3(CCN(Cc4ccccc4)CC3)N2)cc1`, the inhibition in experiment [1] (filed as antagonist) is 79.6%. Also, the inhibition result in experiment [2] was “inactive”.
With `Cc1ccc(-c2ccc(C3=NOC4(CCN(Cc5ccccc5)CC4)N3)cc2)cc1`, in [1], the inhibition came out at 34.9%. The inhibition entry in experiment [2] is “inactive”.
Turning to `CC(C)c1cccc(-c2ccc(C3=NOC4(CCN(Cc5ccccc5)CC4)N3)cc2)c1`, the inhibition in [1] was found to be 26.2%. In addition, in experiment [2], the inhibition entry was “inactive”.
Turning to `Fc1ccc(CN2CCC3(CC2)NC(C2CC2)=NO3)cc1`, the inhibition worked out at 83.9% in [1] (filed as antagonist) and 52.8% in experiment [2] (filed as antagonist).
As for `Cc1ccccc1-c1ccc(C2=NOC3(CCN(Cc4ccccc4)CC3)N2)cc1`, the inhibition in [1] (filed as antagonist) amounted to 72%. Besides, the inhibition result in experiment [2] was “inactive”.
Turning to `Fc1cccc(C2=NOC3(CCN(Cc4ccccc4)CC3)N2)c1`, the inhibition in experiment [1] (filed as antagonist) was 83.1%; in experiment [2] (filed as antagonist), 65.9%.
In the case of `CN1CCC2(CC1)NC(c1ccccc1)=NO2`, the inhibition in experiment [1] (filed as antagonist) was 96.7%; in [2] (filed as antagonist), 90.4%. In [3], the IC50 came to 4.4 µM.
For `c1ccc(CN2CCC3(CC2)NC(c2n[nH]c4ccccc24)=NO3)cc1`, the inhibition in [1] (filed as antagonist) amounted to 69.8%. The inhibition entry in [2] was “inactive”.
As for `c1ccc(CN2CCC3(CC2)NC(c2ccccn2)=NO3)cc1`, in [1] (filed as antagonist), the inhibition turned out to be 68.7%. For the same molecule, the inhibition entry in [2] was “inactive”.
As to `COc1cccc(-c2ccc(C3=NOC4(CCN(Cc5ccccc5)CC4)N3)cc2)c1`, the inhibition in [1] (filed as antagonist) worked out at 95.6%; in [2] (filed as antagonist) it was 76.9%.
With `c1ccc(CN2CCC3(CC2)NC(c2cc4ccccc4cn2)=NO3)cc1`, the inhibition in experiment [1] (filed as antagonist) came to 91.1%; in experiment [2] (filed as antagonist), 76.6%.
For `CCOC(=O)N1CCC2(CC1)NC(c1ccc(Br)cc1)=NO2`, the inhibition in [1] (filed as antagonist) stood at 58.1%. For the same molecule, the inhibition result in experiment [2] was “inactive”.
Take `CN1CCC2(CC1)NC(c1ccc(Br)cc1)=NO2`: the inhibition in experiment [1] (filed as antagonist) amounted to 97.4%; in experiment [2] (filed as antagonist) it was 91.8%; in experiment [8], 20%; in experiment [9] it was 24%. In addition, the IC50 was determined as 32 µM in [4] and 5.4 µM in experiment [3]. In addition, the outcome in experiment [5] and in experiment [6] was inactive. For the same molecule, the Ratio IC50 in [7] stood at 6.
As for `Nc1cccc(-c2ccc(C3=NOC4(CCN(Cc5ccccc5)CC4)N3)cc2)c1`, the inhibition in [1] (filed as antagonist) is 93.5%; in experiment [2] (filed as antagonist), 60.1%.
On to `Cc1cccc(-c2ccc(C3=NOC4(CCN(Cc5ccccc5)CC4)N3)cc2)c1`, for which the inhibition amounted to 80.1% in experiment [1] (filed as antagonist) and 30% in [2].
As to `Fc1ccc(C2=NOC3(CCN(Cc4ccccc4)CC3)N2)cc1`, the inhibition in experiment [1] (filed as antagonist) turned out to be 78.3%. The inhibition result in experiment [2] was “inactive”.
`c1ccc(CN2CCC3(CC2)NC(c2ccc(-c4cccs4)cc2)=NO3)cc1`: the inhibition in [1] (filed as antagonist) came out at 71.1%. Moreover, the inhibition result in experiment [2] is “inactive”.
In the same order, the values of `Clc1ccc(-c2ccc(C3=NOC4(CCN(Cc5ccccc5)CC4)N3)cc2)cc1` are 52.8% and “inactive”.
In the same order, the values of `CN(C)c1cccc(-c2ccc(C3=NOC4(CCN(Cc5ccccc5)CC4)N3)cc2)c1` are 81.1% and 39.5%.
With `Brc1ccc(C2=NOC3(CCN(Cc4ccccc4)CC3)N2)cn1`, the inhibition turned out to be 90.3% in experiment [1] (filed as antagonist) and 63.7% in experiment [2] (filed as antagonist).
As for `CCOC(=O)N1CCC2(CC1)NC(c1ccccc1)=NO2`, the inhibition in [1] (filed as antagonist) is 75.1%. For the same molecule, the inhibition result in experiment [2] was “inactive”.
As for `c1cc(CN2CCC3(CC2)NC(c2nccs2)=NO3)ccn1`, in [1], the inhibition turned out to be 18.8%. The inhibition result in [2] is “inactive”.
With `CN1CCC2(CC1)NC(c1ccc(Br)nc1)=NO2`, the values for the inhibition in experiment [1] (filed as antagonist) and in experiment [2] (filed as antagonist) were 83.4% and 44.1%, respectively.
